Reference: patent publication US11395847B2, “Acylated GLP-1/GLP-2 dual agonists” (Zealand Pharma A/S, priority 2016, dated 2022)
Where a SMILES comes first, the peptide text is derived from it.

Assays:
[1] = Chemical stability (RP-HPLC normalized purity after incubation at 40° C.); format: physicochemical; settings: 14-day incubation, 0.2 mg/ml, normalized purity (area-%); for pH 6 normalized stability: pH 6, 40° C.; for pH 7 normalized stability: pH 7, 40° C.
Method in brief: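 Peptide at 0.2 mg/ml final in water adjusted to pH 6, 7, 7.5 or 9, incubated at 40° C for 14 days. Purity measured as main-peak area-% by C18 RP-HPLC (acetonitrile/TFA/water gradient, UV 220 nm) and normalized to T=0 set at 100 for each pH.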

human GLP-1 receptor = biological target: T1, human GLP-1 receptor (Homo sapiens, UniProt P43220); experiment: GLP-1 receptor potency assay (cAMP ALPHASCREEN, HEK293 cells stably expressing GLP-1 R); format: cell-based; settings: cAMP response, HEK293 cells expressing human GLP-1 R
T1 construct: expressed in transfected cells
T1 sequence (P43220 24-463): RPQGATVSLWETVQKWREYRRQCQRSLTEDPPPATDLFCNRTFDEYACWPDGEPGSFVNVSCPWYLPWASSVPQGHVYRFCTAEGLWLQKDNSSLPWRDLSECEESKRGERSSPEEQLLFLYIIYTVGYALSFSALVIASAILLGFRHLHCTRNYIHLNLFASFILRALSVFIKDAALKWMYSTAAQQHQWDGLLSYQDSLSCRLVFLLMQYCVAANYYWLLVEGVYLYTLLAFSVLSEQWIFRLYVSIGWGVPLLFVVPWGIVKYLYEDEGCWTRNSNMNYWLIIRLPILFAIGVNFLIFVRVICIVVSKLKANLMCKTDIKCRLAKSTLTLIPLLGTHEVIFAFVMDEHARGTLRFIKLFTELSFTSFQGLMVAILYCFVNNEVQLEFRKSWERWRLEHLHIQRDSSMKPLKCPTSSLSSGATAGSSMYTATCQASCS
Text: One useful in vitro assay for measuring GLP-1 and GLP-2 receptor activity is quantitation of cAMP, i.e. 3′-5′-cyclic adenosine monophosphate, which is a second messenger essential in many biological processes, and one of the most ubiquitous mechanisms for regulating cellular functions.
The cDNA encoding the human glucagon-like peptide 1 receptor (GLP-1 R) (primary accession number P43220) was cloned from the cDNA BC112126 (MGC:138331/IMAGE:8327594). The DNA encoding the GLP-1-R was amplified by PCR using primers encoding terminal restriction sites for subcloning. The 5′-end primers additionally encoded a near Kozak consensus sequence to ensure efficient translation. […] The PCR products encoding the GLP-1-R were subcloned into a mammalian expression vector containing a neomycin (G418) resistance marker. The mammalian expression vectors encoding the GLP-1-R were transfected into HEK293 cells by a standard calcium phosphate transfection method. 48 hours post-transfection, cells were seeded for limited dilution cloning and selected with 1 mg/ml G418 in the culture medium. Following 3 weeks in G418 selection clones were picked and tested in a functional GLP-1 receptor potency assay as described below.
The cAMP ALPHASCREEN® assay from Perkin Elmer was used to quantitate the cAMP response to activation of the GLP1 and GLP2 receptor, respectively. […] Data from test compounds eliciting an increase in the intracellular level of cAMP were normalized relative to the positive and negative control (vehicle) to calculate the EC50 and maximal response from the concentration response curve.

human GLP-2 receptor = biological target: T2, human GLP-2 receptor (Homo sapiens, UniProt O95838, D470N); experiment: GLP-2 receptor potency assay (cAMP ALPHASCREEN, HEK293 cells stably expressing GLP-2 R); format: cell-based; settings: cAMP response, HEK293 cells expressing human GLP-2 R; read-out: EC50 GLP-2
T2 construct: expressed in transfected cells
T2 sequence (O95838 1-553 D470N): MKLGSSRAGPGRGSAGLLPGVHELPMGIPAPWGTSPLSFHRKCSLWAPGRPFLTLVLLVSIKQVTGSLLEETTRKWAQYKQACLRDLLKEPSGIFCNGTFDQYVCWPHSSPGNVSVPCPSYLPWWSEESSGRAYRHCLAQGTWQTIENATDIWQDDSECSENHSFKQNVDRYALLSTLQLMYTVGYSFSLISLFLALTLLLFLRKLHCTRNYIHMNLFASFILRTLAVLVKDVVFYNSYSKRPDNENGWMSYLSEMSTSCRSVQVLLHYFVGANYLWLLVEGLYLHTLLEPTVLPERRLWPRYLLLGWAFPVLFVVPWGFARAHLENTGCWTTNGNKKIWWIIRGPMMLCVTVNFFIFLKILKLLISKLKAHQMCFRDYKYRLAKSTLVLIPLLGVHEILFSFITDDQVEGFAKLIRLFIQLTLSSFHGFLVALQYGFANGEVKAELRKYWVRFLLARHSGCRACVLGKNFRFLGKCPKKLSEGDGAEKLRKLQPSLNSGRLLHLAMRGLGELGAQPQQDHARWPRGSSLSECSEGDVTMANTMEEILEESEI
Method in brief: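 HEK293 clones stably transfected with the human GLP-2 receptor, selected with G418, were used. Intracellular cAMP was quantified by AlphaScreen. Responses were normalised to positive and vehicle controls, and EC50 and maximal response were taken from concentration-response curves.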

pH 6 normalized stability [1]	pH 7 normalized stability [1]	EC50 (human GLP-1 receptor) [pM]	EC50 (human GLP-2 receptor) [pM]	SMILES
C (<80% normalized stability)	B (>80% stability)	490	83	CC[C@H](C)[C@H](NC(=O)[C@H](Cc1ccccc1)NC(=O)[C@H](CC(=O)O)NC(=O)[C@H](CCCNC(=N)N)NC(=O)[C@H](C)NC(=O)[C@H](C)NC(=O)[C@H](CCC(N)=O)NC(=O)[C@H](CCCCNC(=O)CC[C@H](NC(=O)CCCCCCCCCCCCCCCCC(=O)O)C(=O)O)NC(=O)[C@H](CC(=O)O)NC(=O)[C@H](CC(C)C)NC(=O)[C@@H](NC(=O)[C@@H](NC(=O)[C@H](C)NC(=O)[C@H](CC(C)C)NC(=O)[C@H](CCC(=O)O)NC(=O)[C@H](CO)NC(=O)[C@H](CO)NC(=O)[C@H](Cc1ccccc1)NC(=O)[C@H](CO)NC(=O)CNC(=O)[C@H](CC(=O)O)NC(=O)C(C)(C)NC(=O)[C@@H](N)Cc1c[nH]cn1)[C@@H](C)O)[C@@H](C)CC)C(=O)N[C@@H](C)C(=O)N[C@@H](Cc1c[nH]c2ccccc12)C(=O)N[C@@H](CC(C)C)C(=O)N[C@H](C(=O)N[C@@H](CCC(N)=O)C(=O)N[C@@H](Cc1c[nH]cn1)C(=O)N[C@@H](CCCCN)C(=O)N[C@H](C(=O)N[C@H](C(=O)N[C@@H](CC(=O)O)C(=O)O)[C@@H](C)O)[C@@H](C)CC)[C@@H](C)CC [A, reference compound] (HELM PEPTIDE1{H.[Aib].D.G.S.F.S.S.E.L.A.T.I.L.D.K.Q.A.A.R.D.F.I.A.W.L.I.Q.H.K.I.T.D}|PEPTIDE2{[O=C(O)CCCCCCCCCCCCCCCCC(=O)[*:2]].[gGlu]}$PEPTIDE1,PEPTIDE2,16:R3-2:R2$$$V2.0)
A (>90% normalised stability)	A (>90% normalised stability)	270	240	CC[C@H](C)[C@H](NC(=O)[C@H](Cc1ccccc1)NC(=O)[C@H](CC(=O)O)NC(=O)[C@H](CCCNC(=N)N)NC(=O)[C@H](C)NC(=O)[C@H](C)NC(=O)[C@H](CCC(N)=O)NC(=O)[C@H](CCCCNC(=O)CC[C@H](NC(=O)CCCCCCCCCCCCCCCCC(=O)O)C(=O)O)NC(=O)[C@H](CC(=O)O)NC(=O)[C@H](CC(C)C)NC(=O)[C@@H](NC(=O)[C@@H](NC(=O)[C@H](C)NC(=O)[C@H](CC(C)C)NC(=O)[C@H](CCC(=O)O)NC(=O)[C@H](CO)NC(=O)[C@@H](NC(=O)[C@H](Cc1ccccc1)NC(=O)[C@H](CO)NC(=O)CNC(=O)[C@H](CCC(=O)O)NC(=O)C(C)(C)NC(=O)[C@@H](N)Cc1c[nH]cn1)[C@@H](C)O)[C@@H](C)O)[C@@H](C)CC)C(=O)N[C@@H](C)C(=O)N[C@@H](Cc1c[nH]c2ccccc12)C(=O)N[C@@H](CC(C)C)C(=O)N[C@H](C(=O)N[C@@H](CO)C(=O)N[C@@H](Cc1c[nH]cn1)C(=O)N[C@@H](CCCCN)C(=O)N[C@H](C(=O)N[C@H](C(=O)N[C@@H](CC(=O)O)C(=O)O)[C@@H](C)O)[C@@H](C)CC)[C@@H](C)CC [Compound 31] (HELM PEPTIDE1{H.[Aib].E.G.S.F.T.S.E.L.A.T.I.L.D.K.Q.A.A.R.D.F.I.A.W.L.I.S.H.K.I.T.D}|PEPTIDE2{[O=C(O)CCCCCCCCCCCCCCCCC(=O)[*:2]].[gGlu]}$PEPTIDE1,PEPTIDE2,16:R3-2:R2$$$V2.0)
		130	350	CC[C@H](C)[C@H](NC(=O)[C@H](Cc1ccccc1)NC(=O)[C@H](CC(=O)O)NC(=O)[C@H](CCCCNC(=O)COCCOCCNC(=O)[C@H](CCCCN)NC(=O)[C@H](CCC(=O)O)NC(=O)[C@H](CCCCN)NC(=O)CC[C@H](NC(=O)CCCCCCCCCCCCCCCCCCC(=O)O)C(=O)O)NC(=O)[C@H](C)NC(=O)[C@H](C)NC(=O)[C@H](CCC(N)=O)NC(=O)[C@H](CCC(=O)O)NC(=O)[C@H](CC(=O)O)NC(=O)[C@H](CC(C)C)NC(=O)[C@@H](NC(=O)[C@@H](NC(=O)[C@H](C)NC(=O)[C@H](CC(C)C)NC(=O)[C@H](CCC(=O)O)NC(=O)[C@H](CO)NC(=O)[C@@H](NC(=O)[C@H](Cc1ccccc1)NC(=O)[C@@H](NC(=O)CNC(=O)[C@H](CCC(=O)O)NC(=O)C(C)(C)NC(=O)[C@@H](N)Cc1c[nH]cn1)[C@@H](C)O)[C@@H](C)O)[C@@H](C)O)[C@@H](C)CC)C(=O)N[C@@H](C)C(=O)N[C@@H](Cc1c[nH]c2ccccc12)C(=O)N[C@@H](CC(C)C)C(=O)N[C@H](C(=O)N[C@@H](CCC(=O)O)C(=O)N[C@@H](Cc1c[nH]cn1)C(=O)N[C@@H](CCCCN)C(=O)N[C@H](C(=O)N[C@H](C(=O)N[C@@H](CC(=O)O)C(=O)O)[C@@H](C)O)[C@@H](C)CC)[C@@H](C)CC [Compound 65] (HELM PEPTIDE1{H.[Aib].E.G.T.F.T.S.E.L.A.T.I.L.D.E.Q.A.A.K.D.F.I.A.W.L.I.E.H.K.I.T.D}|PEPTIDE2{[O=C(O)CCCCCCCCCCCCCCCCCCC(=O)[*:2]].[gGlu].K.E.K.[O=C(COCCOCCN[*:1])[*:2]]}$PEPTIDE1,PEPTIDE2,20:R3-6:R2$$$V2.0)
		270	150	CC[C@H](C)[C@H](NC(=O)[C@H](Cc1ccccc1)NC(=O)[C@H](CC(=O)O)NC(=O)[C@H](CCCNC(=N)N)NC(=O)[C@H](C)NC(=O)[C@H](C)NC(=O)[C@H](CCCCNC(=O)COCCOCCNC(=O)[C@H](CCCCN)NC(=O)[C@H](CCC(=O)O)NC(=O)[C@H](CCCCN)NC(=O)CC[C@H](NC(=O)CCCCCCCCCCCCCCCCCCC(=O)O)C(=O)O)NC(=O)[C@H](C)NC(=O)[C@H](CC(=O)O)NC(=O)[C@H](CC(C)C)NC(=O)[C@@H](NC(=O)[C@@H](NC(=O)[C@H](C)NC(=O)[C@H](CC(C)C)NC(=O)[C@H](CCC(=O)O)NC(=O)[C@H](CO)NC(=O)[C@@H](NC(=O)[C@H](Cc1ccccc1)NC(=O)[C@H](CO)NC(=O)CNC(=O)[C@H](CCC(=O)O)NC(=O)C(C)(C)NC(=O)[C@@H](N)Cc1c[nH]cn1)[C@@H](C)O)[C@@H](C)O)[C@@H](C)CC)C(=O)N[C@@H](C)C(=O)N[C@@H](Cc1c[nH]c2ccccc12)C(=O)N[C@@H](CC(C)C)C(=O)N[C@H](C(=O)N[C@@H](CCC(=O)O)C(=O)N[C@@H](Cc1c[nH]cn1)C(=O)N[C@@H](CCCCN)C(=O)N[C@H](C(=O)N[C@H](C(=O)N[C@@H](CC(=O)O)C(=O)O)[C@@H](C)O)[C@@H](C)CC)[C@@H](C)CC [Compound 62] (HELM PEPTIDE1{H.[Aib].E.G.S.F.T.S.E.L.A.T.I.L.D.A.K.A.A.R.D.F.I.A.W.L.I.E.H.K.I.T.D}|PEPTIDE2{[O=C(O)CCCCCCCCCCCCCCCCCCC(=O)[*:2]].[gGlu].K.E.K.[O=C(COCCOCCN[*:1])[*:2]]}$PEPTIDE1,PEPTIDE2,17:R3-6:R2$$$V2.0)
		20	180	CC[C@H](C)[C@H](NC(=O)[C@H](Cc1ccccc1)NC(=O)[C@H](CC(=O)O)NC(=O)[C@H](CCCNC(=N)N)NC(=O)[C@H](C)NC(=O)[C@H](C)NC(=O)[C@H](CCC(N)=O)NC(=O)[C@H](CCCCNC(=O)[C@H](CCCCN)NC(=O)[C@H](CCC(=O)O)NC(=O)[C@H](CCCCN)NC(=O)CC[C@H](NC(=O)CCCCCCCCCCCCCCCCCCC(=O)O)C(=O)O)NC(=O)[C@H](CC(=O)O)NC(=O)[C@H](CC(C)C)NC(=O)[C@@H](NC(=O)[C@@H](NC(=O)[C@H](C)NC(=O)[C@H](CC(C)C)NC(=O)[C@H](CCC(=O)O)NC(=O)[C@H](CO)NC(=O)[C@@H](NC(=O)[C@H](Cc1ccccc1)NC(=O)[C@@H](NC(=O)CNC(=O)[C@H](CCC(=O)O)NC(=O)C(C)(C)NC(=O)[C@@H](N)Cc1c[nH]cn1)[C@@H](C)O)[C@@H](C)O)[C@@H](C)O)[C@@H](C)CC)C(=O)N[C@@H](C)C(=O)N[C@@H](Cc1c[nH]c2ccccc12)C(=O)N[C@@H](CC(C)C)C(=O)N[C@H](C(=O)N[C@@H](CCC(N)=O)C(=O)N[C@@H](Cc1c[nH]cn1)C(=O)N[C@@H](CCCCN)C(=O)N[C@H](C(=O)N[C@H](C(=O)N[C@@H](CC(=O)O)C(=O)O)[C@@H](C)O)[C@@H](C)CC)[C@@H](C)CC [Compound 51] (HELM PEPTIDE1{H.[Aib].E.G.T.F.T.S.E.L.A.T.I.L.D.K.Q.A.A.R.D.F.I.A.W.L.I.Q.H.K.I.T.D}|PEPTIDE2{[O=C(O)CCCCCCCCCCCCCCCCCCC(=O)[*:2]].[gGlu].K.E.K}$PEPTIDE1,PEPTIDE2,16:R3-5:R2$$$V2.0)
